# Data: US20230085307A1, “PYRIDAZINONE COMPOUND AND HERBICIDE” (NISSAN CHEMICAL CORPORATION, priority 2019, published 2023)
# Assays:
# late watergrass = test: Test Example 2: herbicidal activity, application during weed generation under submerged conditions (Table 17, symbol A); format: in vivo, late watergrass (Echinochloa oryzicola); details: AAH 320 g/ha; application during weed generation, submerged conditions
# Outline: (§1)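 Effect on each weed is rated three weeks post-treatment, using the same scoring criteria as the preceding test. Plants grow from mixed-sown seed in flooded alluvial soil (4 cm water) at 25° C. to 30° C., and are treated at one to two leaves with diluted emulsion dropped onto the water.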
# Japanese bulrush = test: Test Example 2: herbicidal activity, application during weed generation under submerged conditions (Table 17, symbol B); format: in vivo, Japanese bulrush (Schoenoplectus juncoides); details: AAH 320 g/ha; application during weed generation, submerged conditions
# Outline: as §1
# oval-leafed pondweed = test: Test Example 2: herbicidal activity, application during weed generation under submerged conditions (Table 17, symbol C); format: in vivo, oval-leafed pondweed (Monochoria vaginalis); details: AAH 320 g/ha; application during weed generation, submerged conditions
# Outline: as §1
# barnyard grass [1] = test: Test Example 3: herbicidal effect by foliage application, Wagner pot (Table 18, symbol H); format: in vivo, barnyard grass (Echinochloa crus-galli); details: 320 g/ha
# Outline: (§2)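 Plants were sown in alluvial soil held under 0.1–0.5 cm standing water and grown 14 days in a greenhouse at 25–30 °C. An emulsifiable formulation, water-diluted to the set dose, was then sprayed onto the foliage, and effects were scored three weeks later using previously defined criteria.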
# Chinese sprangletop = test: Test Example 3: herbicidal effect by foliage application, Wagner pot (Table 18, symbol D); format: in vivo, chinese sprangletop (Leptochloa chinensis); details: 320 g/ha
# Outline: as §2
# rice flat sedge = test: Test Example 3: herbicidal effect by foliage application, Wagner pot (Table 18, symbol E); format: in vivo, rice flat sedge (Cyperus iria); details: 320 g/ha
# Outline: as §2
# southern crabgrass [2] = test: Test Example 4: herbicidal effect by soil treatment (Table 19, symbol F); format: in vivo, southern crabgrass (Digitaria ciliaris); details: amount of applied herbicide 320 g/ha
# Outline: (§3)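 Soil-surface application: an emulsion agent diluted with water to the predetermined dose is sprayed uniformly over seeds lying under roughly 1.5 cm of sterilized diluvial soil. Boxes stay in a greenhouse at 25° C. to 30° C. Three weeks later, each species is graded on previously defined criteria.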
# green foxtail [3] = test: Test Example 4: herbicidal effect by soil treatment (Table 19, symbol G); format: in vivo, green foxtail (Setaria viridis); details: amount of applied herbicide 320 g/ha
# Outline: as §3
# barnyard grass [4] = test: Test Example 4: herbicidal effect by soil treatment (Table 19, symbol H); format: in vivo, barnyard grass (Echinochloa crus-galli); details: amount of applied herbicide 320 g/ha
# Outline: as §3
# wild oat [5] = test: Test Example 4: herbicidal effect by soil treatment (Table 19, symbol I); format: in vivo, wild oat (Avena fatua); details: amount of applied herbicide 320 g/ha
# Outline: as §3
# blackgrass [6] = test: Test Example 4: herbicidal effect by soil treatment (Table 19, symbol J); format: in vivo, blackgrass (Alopecurus myosuroides); details: amount of applied herbicide 320 g/ha
# Outline: as §3
# Italian ryegrass [7] = test: Test Example 4: herbicidal effect by soil treatment (Table 19, symbol K); format: in vivo, Italian ryegrass (Lolium multiflorum); details: amount of applied herbicide 320 g/ha
# Outline: as §3
# windgrass [8] = test: Test Example 4: herbicidal effect by soil treatment (Table 19, symbol L); format: in vivo, windgrass (Apera spica-venti); details: amount of applied herbicide 320 g/ha
# Outline: as §3
# velvetleaf [9] = test: Test Example 4: herbicidal effect by soil treatment (Table 19, symbol M); format: in vivo, velvetleaf (Abutilon theophrasti); details: amount of applied herbicide 320 g/ha
# Outline: as §3
# redroot pigweed [10] = test: Test Example 4: herbicidal effect by soil treatment (Table 19, symbol N); format: in vivo, redroot pigweed (Amaranthus retroflexus); details: amount of applied herbicide 320 g/ha
# Outline: as §3
# lambsquarters [11] = test: Test Example 4: herbicidal effect by soil treatment (Table 19, symbol O); format: in vivo, lambsquarters (Chenopodium album); details: amount of applied herbicide 320 g/ha
# Outline: as §3
# chickweed [12] = test: Test Example 4: herbicidal effect by soil treatment (Table 19, symbol P); format: in vivo, common chickweed (Stellaria media); details: amount of applied herbicide 320 g/ha
# Outline: as §3
# persian speedwell [13] = test: Test Example 4: herbicidal effect by soil treatment (Table 19, symbol R); format: in vivo, Persian speedwell (Veronica persica); details: amount of applied herbicide 320 g/ha
# Outline: as §3
# southern crabgrass [14] = test: Test Example 5: herbicidal effect by foliage application, plastic box (Table 20, symbol F); format: in vivo, southern crabgrass (Digitaria ciliaris); details: 320 g/ha, foliage application after 14-day growth, evaluated three weeks after application
# Outline: (§4)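 Sow seeds spot-wise in sterilized diluvial soil; cover with ~1.5 cm soil. Grow 14 days in greenhouse, 25° C. to 30° C. Spray foliage with emulsion diluted to predetermined amount. Rate effect after 3 weeks.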
# green foxtail [15] = test: Test Example 5: herbicidal effect by foliage application, plastic box (Table 20, symbol G); format: in vivo, green foxtail (Setaria viridis); details: 320 g/ha, foliage application after 14-day growth, evaluated three weeks after application
# Outline: as §4
# barnyard grass [16] = test: Test Example 5: herbicidal effect by foliage application, plastic box (Table 20, symbol H); format: in vivo, barnyard grass (Echinochloa crus-galli); details: 320 g/ha, foliage application after 14-day growth, evaluated three weeks after application
# Outline: as §4
# wild oat [17] = test: Test Example 5: herbicidal effect by foliage application, plastic box (Table 20, symbol I); format: in vivo, wild oat (Avena fatua); details: 320 g/ha, foliage application after 14-day growth, evaluated three weeks after application
# Outline: as §4
# blackgrass [18] = test: Test Example 5: herbicidal effect by foliage application, plastic box (Table 20, symbol J); format: in vivo, blackgrass (Alopecurus myosuroides); details: 320 g/ha, foliage application after 14-day growth, evaluated three weeks after application
# Outline: as §4
# Italian ryegrass [19] = test: Test Example 5: herbicidal effect by foliage application, plastic box (Table 20, symbol K); format: in vivo, Italian ryegrass (Lolium multiflorum); details: 320 g/ha, foliage application after 14-day growth, evaluated three weeks after application
# Outline: as §4
# windgrass [20] = test: Test Example 5: herbicidal effect by foliage application, plastic box (Table 20, symbol L); format: in vivo, windgrass (Apera spica-venti); details: 320 g/ha, foliage application after 14-day growth, evaluated three weeks after application
# Outline: as §4
# velvetleaf [21] = test: Test Example 5: herbicidal effect by foliage application, plastic box (Table 20, symbol M); format: in vivo, velvetleaf (Abutilon theophrasti); details: 320 g/ha, foliage application after 14-day growth, evaluated three weeks after application
# Outline: as §4
# redroot pigweed [22] = test: Test Example 5: herbicidal effect by foliage application, plastic box (Table 20, symbol N); format: in vivo, redroot pigweed (Amaranthus retroflexus); details: 320 g/ha, foliage application after 14-day growth, evaluated three weeks after application
# Outline: as §4
# lambsquarters [23] = test: Test Example 5: herbicidal effect by foliage application, plastic box (Table 20, symbol O); format: in vivo, lambsquarters (Chenopodium album); details: 320 g/ha, foliage application after 14-day growth, evaluated three weeks after application
# Outline: as §4
# chickweed [24] = test: Test Example 5: herbicidal effect by foliage application, plastic box (Table 20, symbol P); format: in vivo, common chickweed (Stellaria media); details: 320 g/ha, foliage application after 14-day growth, evaluated three weeks after application
# Outline: as §4
# persian speedwell [25] = test: Test Example 5: herbicidal effect by foliage application, plastic box (Table 20, symbol R); format: in vivo, Persian speedwell (Veronica persica); details: 320 g/ha, foliage application after 14-day growth, evaluated three weeks after application
# Outline: as §4
compound,measurement,setting,value
CCCC(=O)Oc1c(C)nn(C)c(=O)c1-c1c(-c2ccccc2OC)sc2c(F)cccc12 [4-004],"herbicidal effect rating, A: late watergrass",late watergrass,3 (Herbicidal rate of 40% or more and less than 70%)
same,"herbicidal effect rating, B: Japanese bulrush",Japanese bulrush,0 (Herbicidal rate of 5% or less (almost no effect))
same,"herbicidal effect rating, C: oval-leafed pondweed",oval-leafed pondweed,2 (Herbicidal rate of 20% or more and less than 40%)
same,herbicidal effect on barnyard grass (H),barnyard grass [1],4 (Herbicidal rate of 70% or more and less than 90%)
same,herbicidal effect on Chinese sprangletop (D),Chinese sprangletop,3 (Herbicidal rate of 40% or more and less than 70%)
same,herbicidal effect on rice flat sedge (E),rice flat sedge,4 (Herbicidal rate of 70% or more and less than 90%)
same,"Herbicidal effect by soil treatment, F: southern crabgrass",southern crabgrass [2],0 (Herbicidal rate of 5% or less (almost no effect))
same,"Herbicidal effect by soil treatment, G: green foxtail",green foxtail [3],0 (Herbicidal rate of 5% or less (almost no effect))
same,"Herbicidal effect by soil treatment, H: barnyard grass",barnyard grass [4],1 (Herbicidal rate of 5% or more and less than 20%)
same,"Herbicidal effect by soil treatment, I: wild oat",wild oat [5],0 (Herbicidal rate of 5% or less (almost no effect))
same,"Herbicidal effect by soil treatment, J: blackgrass",blackgrass [6],0 (Herbicidal rate of 5% or less (almost no effect))
same,"Herbicidal effect by soil treatment, K: Italian ryegrass",Italian ryegrass [7],0 (Herbicidal rate of 5% or less (almost no effect))
same,"Herbicidal effect by soil treatment, L: windgrass",windgrass [8],0 (Herbicidal rate of 5% or less (almost no effect))
same,"Herbicidal effect by soil treatment, M: velvetleaf",velvetleaf [9],0 (Herbicidal rate of 5% or less (almost no effect))
same,"Herbicidal effect by soil treatment, N: redroot pigweed",redroot pigweed [10],3 (Herbicidal rate of 40% or more and less than 70%)
same,"Herbicidal effect by soil treatment, O: lambsquarters",lambsquarters [11],3 (Herbicidal rate of 40% or more and less than 70%)
same,"Herbicidal effect by soil treatment, P: chickweed",chickweed [12],1 (Herbicidal rate of 5% or more and less than 20%)
same,"Herbicidal effect by soil treatment, R: persian speedwell",persian speedwell [13],0 (Herbicidal rate of 5% or less (almost no effect))
same,herbicidal effect on F: southern crabgrass (evaluation grade 0-5),southern crabgrass [14],3 (Herbicidal rate of 40% or more and less than 70%)
same,herbicidal effect on G: green foxtail (evaluation grade 0-5),green foxtail [15],4 (Herbicidal rate of 70% or more and less than 90%)
same,herbicidal effect on H: barnyard grass (evaluation grade 0-5),barnyard grass [16],3 (Herbicidal rate of 40% or more and less than 70%)
same,herbicidal effect on I: wild oat (evaluation grade 0-5),wild oat [17],0 (Herbicidal rate of 5% or less (almost no effect))
same,herbicidal effect on J: blackgrass (evaluation grade 0-5),blackgrass [18],0 (Herbicidal rate of 5% or less (almost no effect))
same,herbicidal effect on K: Italian ryegrass (evaluation grade 0-5),Italian ryegrass [19],0 (Herbicidal rate of 5% or less (almost no effect))
same,herbicidal effect on L: windgrass (evaluation grade 0-5),windgrass [20],0 (Herbicidal rate of 5% or less (almost no effect))
same,herbicidal effect on M: velvetleaf (evaluation grade 0-5),velvetleaf [21],4 (Herbicidal rate of 70% or more and less than 90%)
same,herbicidal effect on N: redroot pigweed (evaluation grade 0-5),redroot pigweed [22],5 (Herbicidal rate of 90% or more (almost completely withered))
same,herbicidal effect on O: lambsquarters (evaluation grade 0-5),lambsquarters [23],2 (Herbicidal rate of 20% or more and less than 40%)
same,herbicidal effect on P: chickweed (evaluation grade 0-5),chickweed [24],5 (Herbicidal rate of 90% or more (almost completely withered))
same,herbicidal effect on R: persian speedwell (evaluation grade 0-5),persian speedwell [25],4 (Herbicidal rate of 70% or more and less than 90%)
